Marks after values point to notes of the source that are not given here.
Experiments:
[1] = tested on: GSH-Px (total glutathione peroxidase); experiment: Guinea pig back skin application for 30 days: GSH-Px (DNTB method); format: in vivo; details: 3 (w/v)% sample, Content by Equation 1 relative to blank group
Procedure: (§1) 10 g of stearic acid (C18H36O2), 70 mL of water and 20 mL of glycerol, each heated to 80, were mixed homogeneously. After stirring for about 1 minute, 3 (w/v)% of paeoniflorin or vitamin E (positive control group) was added. After adding 0.1 (w/v)% of methyl paraben, stirring was performed for 1 minute. 1 mL of KOH was slowly added. After considerable emulsification had proceeded, stirring was performed until the temperature reached about 50.
(§2) Guinea pigs were grouped, each group consisting of 3 males and 3 females. An area of 3×3 cm^2 was shaved from the back of each guinea pig. For each guinea pig, the left side was treated with the sample prepared above and the right side was treated as a negative control group and a positive control group. Application was performed at 8:00 H and 16:00 H each day. Application was performed for 30 days, at about 5 mg/cm^2 each. On the 31st day, skin was taken from the back of each animal. Subcutaneous fat tissue was removed and collagen and lipid peroxide contents were measured with […]. 3) Result
(§3) SOD (superoxide dismutase) and GSH-Px (total glutathione peroxidase) are important antioxidative enzymes in living organisms. […]
(§4) MDA was detected using thiobarboturic acid. GSH-Px and SOD contents were measured by DNTB (5,5′-dithio-bis-2-nitrobenzoic acid) and nitrate reduction methods, respectively. […]

[2] = tested on: MDA (malondialdehyde); experiment: Guinea pig back skin application for 30 days: lipid peroxide MDA (thiobarboturic acid); format: in vivo; details: 3 (w/v)% sample, Content by Equation 1 relative to blank group
Procedure: as §1, §2, §3, §4

[3] = tested on: SOD (superoxide dismutase); experiment: Guinea pig back skin application for 30 days: SOD (nitrate reduction method); format: in vivo; details: 3 (w/v)% sample, Content by Equation 1 relative to blank group
Procedure: as §1, §2, §3, §4

[4] = tested on: hairless mice; experiment: Prevention of wrinkles caused by UV; format: in vivo; details: 0.2% in 1,3-butylene glycol; UV 2MED, 12 weeks, three days a week
Procedure: Prevention effect of wrinkles caused by UV of paeoniflorin prepared in Preparation Example 1 was evaluated as follows using hairless mice. UV was irradiated to hairless mice with a solar stimulator at 2MED (minimum erythema dose). Irradiation was performed for 12 weeks, three days a week. Of the total of 10 mice, 0.2% paeoniflorin dissolved in 1,3-butylene glycol was applied to the sample treatment group and only 1,3-butylene glycol was applied to the control group. Wrinkles of each group were compared 12 weeks later.

[5] = tested on: fibroblasts; experiment: Effect on fibroblast cell activity (MTT analysis); format: cell-based, mouse; details: non-treated = 0
Procedure: Skin tissue was taken from a red skin mouse 3 days or less old. Hypodermic tissue was removed and the skin was treated with 0.25% trypsin for 12 hours. The skin was separated into the epidermis and the dermis. The epidermis was cultured to 75% confluence in an epidermis culture medium (K-SFM). The dermis was further treated with trypsin at 37° C. for 2 hours. Fibroblasts were taken from the dermis and cultured to 75% confluence in a DMEM culture medium containing 10% serum. Paeoniflorin prepared in Preparation Example 1 was dissolved in the cultured keratinocytes and fibroblasts and treated to 0.0004 M. Cell count was measured by MTT [3-(4,5-dimethylthiazol-2-yl)-2,5-diphenyltetrazolium bromide)] analysis to determine cell activity. A non-treated group and a group treated with 0.002 M vitamin C were tested as control groups.

[6] = tested on: guinea pig back skin; experiment: Guinea pig back skin application for 30 days: appearance, histology, collagen (HYP) content; format: in vivo; details: 3 (w/v)% sample; for Increase of collagenous fiber bundles (%) / Increase of collagen content in dermis (%): about 5 mg/cm^2 twice a day; for Increase of collagen content in dermis (%): HYP content
Procedure: as §1, §2
Back skin tissue was impregnated with paraffin and stained with HE (hematoxylin-eosin). Change of the skin tissue was observed. Skin collagen content was determined by adding 6 N hydrochloric acid to skin and measuring the HYP (hydroxyproline) content according to the chloramine-T oxidation method.

[7] = tested on: normal human keratinocytes; experiment: Prevention of DNA impairment caused by UV (electrophoresis tail moment) in cultured keratinocytes; format: cell-based; details: for Average tail moment (n = 50) / Prevention effect (%): 12 hours, then 60 mJ UVB
Procedure: Prevention effect of DNA impairment caused by UV of paeoniflorin prepared in Preparation Example 1 was determined for normal human skin keratinocytes.
Cultured normal human keratinocytes were treated with paeoniflorin of concentrations thereof for 12 hours. The culture medium was removed and the cells were washed with PBS. 60 mJ UVB was irradiated and DNA impairment of the cells was checked. If there is DNA strand breakage inside the cell nucleus, an extended tail is shown toward the positive electrode during electrophoresis. Thus, impairment of DNA can be easily detected by electrophoresis. The average of tail moment of 50 randomly selected cells was used as a control value. The tail moment of paeoniflorin-treated cells was averaged. The control value and the resultant test value were put in Equation 2 below to calculate paeoniflorin's prevention effect of DNA impairment caused by UV.
Prevention effect (%)=(Control value−Test value)/(Control value)×100 [Equation 2]

[8] = tested on: Keratinocytes; experiment: Prevention against skin cell death and aging (X-Gal staining, flow cytometer), keratinocytes; format: cell-based, mouse
Procedure: (§5) Skin tissue was taken from a red skin mouse 3 days or less old. Hypodermic tissue was removed and the skin was treated with 0.25% trypsin for 12 hours. The skin was separated into the epidermis and the dermis. The epidermis was cultured to 75% confluence in an epidermis culture medium (K-SFM). The dermis was further treated with trypsin at 37° C. for 2 hours. Fibroblasts were taken from the dermis and cultured to 75% confluence in a DMEM culture medium containing 10% serum. Cell growth and division status was confirmed by specifically staining cell DNA. β-Gal is a material for specifically marking aged skin cells. Young cells and cells in the resting phase are left intact and only aged cells are specifically stained. Cultured keratinocytes and fibroblasts were treated with a minimum amount of X-Gal, respectively, and stained at 37 for 24 hours. Aged skin cells were stained to deep blue in 2-4 hours and gave the best result in 12-16 hours (see Proc. Natl. Acad. Sci. USA, 1995, 92: 9363-7). Then, stained cells (aged cells), living cells and dead cells were counted with a flow cytometer. In Table 4, “blank” refers to the control group containing no cells.

[9] = tested on: fibroblasts; experiment: Prevention against skin cell death and aging (X-Gal staining, flow cytometer), fibroblasts; format: cell-based, mouse
Procedure: as §5

[10] = tested on: hairless mice; experiment: Prevention of DNA impairment caused by UV (in vivo); details: after 6 days 1 J UVB
Procedure: Prevention effect (%)=(Control value−Test value)/(Control value)×100 [Equation 2] Paeoniflorin dissolved in 80% ethanol was applied to the back of hairless mice. After 6 days, 1 J UVB was irradiated. Skin cells were taken and DNA impairment was measured.

[11] = 0.01% in 80% ethanol applied to the back
[12] = 0.1% in 80% ethanol applied to the back
[13] = 1% in 80% ethanol applied to the back

Q: With `C[C@@]12C[C@@]3(O)O[C@@H](O1)[C@]1(COC(=O)c4ccccc4)[C@H]3C[C@@]12O[C@@H]1O[C@H](CO)[C@@H](O)[C@H](O)[C@H]1O` [Paeoniflorin] as the molecule, how does the GSH-Px [1] read?
A: 29.51*

Q: And the MDA [2]?
A: 29.57*

Q: What about the SOD [3] of the same molecule?
A: 8.58*

Q: What about the “Not improved (number of mice, wrinkles compared to the control group)” value [4] of the same molecule?
A: 0

Q: And the “Significantly improved (number of mice, wrinkles compared to the control group)” value [4]?
A: 6

Q: And the “Slightly improved (number of mice, wrinkles compared to the control group)” value [4]?
A: 4

Q: And the “Increase in cell activity (%)” value ([5]; 0.0004 M)?
A: 25.7%

Q: And the “Cell organelles observed in the dermis” value [6]?
A: Expansion of RER (rough endoplasmie reticulum) and increase of mitochondria

Q: And the “Histological observation (HE): change in the dermis” value [6]?
A: an increase in collagenous fiber bundles was observed in the dermis

Q: And the “Histological observation (HE): change in the epidermis” value [6]?
A: no significant change in the epidermis

Q: And the “Observation with the naked eyes of treated skin” value [6]?
A: significant apparent improvement, such as soft and shiny skin

Q: And the “Increase of collagenous fiber bundles (%)” value [6]?
A: 18.1* %

Q: And the “Increase of collagen content in dermis (%)” value [6]?
A: 35.92* %

Q: And the “Average tail moment (n = 50)” value ([7]; 0.0001%)?
A: 7.951 ± 1.887

Q: And the “Prevention effect (%)” value ([7]; 0.0001%)?
A: 16.9%

Q: What about the “Average tail moment (n = 50)” value ([7]; 0.001%) of the same molecule?
A: 7.710 ± 2.161

Q: What about the “Prevention effect (%)” value ([7]; 0.001%) of the same molecule?
A: 19.4%

Q: What about the “Average tail moment (n = 50)” value ([7]; 0.01%) of the same molecule?
A: 7.409 ± 2.395

Q: And the “Prevention effect (%)” value ([7]; 0.01%)?
A: 22.6%

Q: What about the “Average tail moment (n = 50)” value ([7]; 0.1%) of the same molecule?
A: 7.320 ± 2.534

Q: And the “Prevention effect (%)” value ([7]; 0.1%)?
A: 23.5%

Q: And the “DNA impairment prevention effect” value ([7]; treatment concentration range of 0.0001% to 0.1%)?
A: at least 16.9%

Q: And the Cell aging rate ([8]; 0.0005 M)?
A: 24.7%

Q: What about the Cell death rate ([8]; 0.0005 M) of the same molecule?
A: 12.3%

Q: What about the Cell growth rate ([8]; 0.0005 M) of the same molecule?
A: 55.3%

Q: What about the Cell aging rate ([9]; 0.0005 M) of the same molecule?
A: 17.2%

Q: What about the Cell death rate ([9]; 0.0005 M) of the same molecule?
A: 11.5%

Q: What about the Cell growth rate ([9]; 0.0005 M) of the same molecule?
A: 18.4%

Q: What about the “Average tail moment (n = 50)” value [10, 11] of the same molecule?
A: 14.968 ± 5.883

Q: And the “Prevention effect (%)” value [10, 11]?
A: 40.9%

Q: And the “Average tail moment (n = 50)” value [10, 12]?
A: 18.930 ± 5.969

Q: What about the “Prevention effect (%)” value [10, 12] of the same molecule?
A: 25.3%

Q: And the “Average tail moment (n = 50)” value [10, 13]?
A: 18.363 ± 5.463

Q: What about the “Prevention effect (%)” value [10, 13] of the same molecule?
A: 27.5%

Q: With `O=C1O[C@H]([C@@H](O)CO)C(O)=C1O` [vitamin C, reference compound] as the molecule, how does the “Increase in cell activity (%)” value ([5]; 0.002 M) read?
A: 14.4%

Q: What does the source list for Vitamin E [reference compound]?
A: GSH-Px [1]: 28.60*; MDA [2]: 26.71*; SOD [3]: 7.17*; Increase of collagenous fiber bundles (%) [6]: 10.4* %; Increase of collagen content in dermis (%) [6]: 29.86* %; Cell aging rate ([8]; 0.0004 M): 20.1%; Cell death rate ([8]; 0.0004 M): 10.5%; Cell growth rate ([8]; 0.0004 M): 23.3%; Cell aging rate ([9]; 0.0004 M): 22.8%; Cell death rate ([9]; 0.0004 M): 15.4%; Cell growth rate ([9]; 0.0004 M): 9.96%

Source: patent US20090275527A1, “SKIN AGING TREATMENT COMPRISING PAEONIFLORIN” (LG HOUSEHOLD & HEALTH CARE LTD., priority 2004, published 2009)
